Row | SMILES | melting point
1 | O=C1CCc2c(OCC3(O)CCN(c4ncc(Br)cc4F)CC3)ccc(F)c2N1 | 197.4 to 203.9 °C
2 | CCc1ccc(N2CCC(O)(COc3ccc(F)c4c3CCC(=O)N4)CC2)c(Cl)c1 | 167.8 to 168 °C
3 | CCCCOc1cc(F)c(N2CC[C@@](O)(COc3ccc(F)c4c3CCC(=O)N4)[C@H](O)C2)c(F)c1 | 185.8 to 186.2 °C
4 | O=C1CCc2c(OC[C@]3(O)CCN(c4ccc(Br)cc4F)C[C@H]3O)ccc(Cl)c2N1 (relative stereo) [Example 269] | 190 to 192 °C
5 | Cc1cc(Cl)cc(F)c1N1CCC(O)(COc2ccc(F)c3c2CCC(=O)N3)CC1 | 258.8 to 259 °C
6 | CC(C)c1ccc(N2CCC(O)(COc3ccc(F)c4c3CCC(=O)N4)CC2)c(Cl)c1 | 176.5 to 176.9 °C
7 | C[C@H]1CN(c2ncc(Cl)cc2Cl)CC[C@@]1(O)COc1ccc(F)c2c1CCC(=O)N2 (relative stereo) | 222 to 223 °C
8 | CCCOc1ccc(N2CCC(O)(COc3ccc(F)c4c3CCC(=O)N4)CC2)c(F)c1 | 185.1 to 185.9 °C
9 | CCSc1cc(F)c(N2CCC(O)(COc3ccc(Cl)c4c3CCC(=O)N4)CC2)c(F)c1 | 157.4 to 157.5 °C
10 | CCOc1c(F)c(F)c(N2CCC(O)(COc3ccc(Cl)c4c3CCC(=O)N4)CC2)c(F)c1F | 174.4 to 174.5 °C
11 | Cc1ccc(N2CCC(O)(COc3ccc(Cl)c4c3CCC(=O)N4)CC2)nc1C | 169.6 to 171 °C
12 | O=C1CCc2c(OCC3(O)CCN(c4cccnc4)CC3)ccc(F)c2N1 | 178.2 to 178.8 °C
13 | Cc1cc(N2CCC(O)(COc3ccc(F)c4c3CCC(=O)N4)CC2)ccc1Cl | 216.1 to 216.3 °C
14 | Cn1c(N2CC[C@@](O)(COc3ccc(F)c4c3CCC(=O)N4)[C@H](O)C2)nc2ccccc21 | 138 to 147 °C
15 | O=C1CCc2c(OCC3(O)CCN(c4ccc(Cl)c(Cl)c4)CC3)ccc(F)c2N1 | 230.9 to 231.2 °C
16 | O=C1CCc2c(OC[C@]3(O)CCN(c4ccccc4Cl)C[C@H]3O)ccc(F)c2N1 | 161.3 to 161.4 °C
17 | O=C1CCc2c(OCC3(O)CCN(c4cc5c(cc4F)OC(F)(F)O5)CC3)ccc(F)c2N1 | 226.6 to 226.7 °C
18 | O=C1CCc2c(OCC3(O)CCN(c4cc(OCCF)c(Cl)cc4F)CC3)ccc(Cl)c2N1 | 223 to 223.3 °C
19 | O=C1CCc2c(OCC3(O)CCN(c4ncc(C(F)(F)F)cc4Cl)CC3)ccc(Cl)c2N1 | 193 to 194.7 °C

Row | SMILES | melting point
20 | O=C1CCc2c(OCC3(O)CCN(c4ccccc4)CC3)ccc(F)c2N1 | 177 to 177.4 °C
21 | O=C1CCc2c(cccc2OC[C@]2(O)CCN(c3c(F)cc(Cl)cc3F)C[C@H]2O)N1 (relative stereo) [Example 349] | 233 °C
22 | O=C1CCc2c(OCC3(O)CCN(c4cc(F)c(Cl)cc4F)CC3)ccc(Cl)c2N1 | 190.3 to 190.4 °C
23 | N#CC1(COc2ccc(F)c3c2CCC(=O)N3)CCN(c2ncc(Cl)cc2Cl)CC1 | 218 °C
24 | CCOCc1ccc(N2CCC(O)(COc3ccc(F)c4c3CCC(=O)N4)CC2)c(F)c1 | 154.2 to 154.5 °C
25 | CCOc1c(F)c(F)c(N2CCC(O)(COc3ccc(F)c4c3CCC(=O)N4)CC2)c(F)c1F | 208.9 to 209.3 °C
26 | O=C1CCc2c(OCC3(O)CCN(c4ccc(OCc5ccc(Cl)cc5Cl)cc4F)CC3)ccc(F)c2N1 | 175.9 to 177.1 °C
27 | CCNC(=O)O[C@@H]1CN(c2ccc(Cl)cc2F)CC[C@@]1(O)COc1ccc(F)c2c1CCC(=O)N2 | 156 to 157 °C
28 | CC(=O)O[C@@H]1CN(c2c(F)cc(Cl)cc2F)CC[C@@]1(O)COc1ccc(F)c2c1CCC(=O)N2 | 163 to 165 °C
29 | O=C1CCc2c(OCC3(O)CCN(c4ccc(F)cc4F)CC3)ccc(F)c2N1 | 201.7 to 201.9 °C
30 | COc1cc(N2CCC(O)(COc3ccc(F)c4c3CCC(=O)N4)CC2)c(F)cc1Cl | 232.4 to 232.5 °C
31 | CCOc1ccc(N2CCC(O)(COc3ccc(F)c4c3CCC(=O)N4)CC2)cc1 | 198.8 to 199.1 °C
32 | O=C1CCc2c(OCC3(O)CCN(c4ncc(C(F)(F)F)cc4Cl)CC3)ccc(F)c2N1 | 172.5 to 172.7 °C
33 | O=C1CCc2c(OCC3(O)CCN(c4c(F)cc(OCC(F)(F)F)cc4F)CC3)ccc(Cl)c2N1 | 178.6 to 178.7 °C
34 | O=C1CCc2c(NCC3(O)CCN(c4ccc(Cl)cc4F)CC3)ccc(F)c2N1 | 225 to 226 °C
35 | O=C1CCc2c(OC[C@@]3(O)CCN(c4c(F)cc(Cl)cc4F)C[C@@H]3O)cc(F)c(F)c2N1 (relative stereo) | 215 to 217 °C
36 | O=C1CCc2c(OCC3(O)CCN(c4c(Cl)cc(Cl)cc4Cl)CC3)ccc(F)c2N1 | 239.4 to 239.8 °C
37 | O=C1CCc2ccc(OCC3(O)CCN(c4ccc(Cl)cc4F)CC3)cc2N1 | 207.8 to 208.7 °C
38 | O=C1CCc2c(OC[C@]3(O)CCN(c4c(F)cc(Br)cc4F)C[C@H]3O)ccc(F)c2N1 [Example 302] | 197 to 198 °C

Row | SMILES | melting point
39 | O=C1CCc2c(cccc2OCC2(O)CCN(c3ccc(Cl)cc3F)CC2)N1 | 231.6 to 232.9 °C
40 | O=C1CCc2c(OC[C@]3(O)CCN(c4ccc(Cl)cc4F)C[C@H]3O)ccc(Cl)c2N1 [Example 328] | 185 to 186.4 °C
41 | O=C1CCc2c(OC[C@]3(O)CCN(c4c(F)cc(F)cc4F)C[C@H]3O)ccc(F)c2N1 [Example 306] | 191 to 192 °C
42 | O=C1CCc2c(OCC3(O)CCN(c4ccc(Cl)cc4C(F)(F)F)CC3)ccc(F)c2N1 | 211.3 to 211.5 °C
43 | NC1(COc2ccc(F)c3c2CCC(=O)N3)CCN(c2ncc(F)cc2F)CC1 | 160.9 to 163.1 °C
44 | O=c1ccc2c(OC[C@]3(O)CCN(c4ccc(Br)cc4F)C[C@H]3O)ccc(F)c2[nH]1 | 224.5 °C (dec.)
45 | O=C1CCc2c(OCC3(O)CCN(c4ccc(OCc5ccccc5)cc4F)CC3)ccc(F)c2N1 | 193 °C
46 | O=C1CCc2c(OC[C@]3(O)CCN(c4c(F)cc(OC(F)F)cc4F)C[C@H]3O)ccc(F)c2N1 [Example 315] | 166 °C
47 | O=C1CCc2c(OC[C@]3(O)CCN(c4ccc(F)cc4Cl)C[C@@H]3F)ccc(F)c2N1 (relative stereo) | 204 to 205 °C
48 | O=C1CCc2c(OCC3(O)CCN(c4ccccc4OC(F)(F)F)CC3)ccc(F)c2N1 | 168 °C
49 | O=C1CCc2c(OCC3(O)CCN(c4ccc(OC(F)(F)F)cc4Cl)CC3)ccc(F)c2N1 | 181.8 to 181.9 °C
50 | CC(C)Oc1cc(N2CCC(O)(COc3ccc(Cl)c4c3CCC(=O)N4)CC2)c(F)cc1Cl | 173.3 to 173.5 °C
51 | O=C1CCc2c(OC[C@]3(O)CCN(c4c(F)cc(Cl)cc4F)C[C@H]3F)ccc(F)c2N1 (relative stereo) [Example 440] | 222 to 223 °C
52 | CCc1cc(N2CCC(O)(COc3ccc(Cl)c4c3CCC(=O)N4)CC2)c(F)cc1F | 178.8 to 178.9 °C
53 | O=C1CCc2c(OC[C@H]3CCN(c4cc(F)c(Cl)cc4F)C[C@@H]3O)ccc(F)c2N1 (relative stereo) | 168.9 to 172.7 °C
54 | CC(C)c1cccc(N2CCC(O)(COc3ccc(F)c4c3CCC(=O)N4)CC2)c1 | 131.1 to 131.3 °C
55 | O=C1CCc2c(OCC3(O)CCN(c4nccc5ccccc45)CC3)ccc(F)c2N1 | 198 to 199 °C
56 | O=C1CCc2c(OC[C@]3(O)CCN(c4ccc(OC(F)F)cc4)C[C@H]3O)ccc(F)c2N1 | 163.1 to 164.6 °C

— US10464926B2, “Heterobicyclic compounds and their use for the treatment of tuberculosis” (OTSUKA PHARMACEUTICAL CO., LTD., priority 2014, dated 2019)
